Measured values from EP0908457B1, “3-(1,2-benzisothiazol- and isoxazol-5-Y1)-2,4(1H,3H)-pyrimidinedione or thione and 3-(1,2-benzisothiazol- and isoxazol-5-y1)-4(3H)-pyrimidinone or thione herbicidal agents” (BASF AKTIENGESELLSCHAFT, priority 1997, dated 1999).

Columns and labels:
[1] = tested on: Echinochloa oryzoides (Ard.) Fritsch.; experiment: Preemergence weed control under flooded paddy conditions, ECHORC (Watergrass (Calif.)); format: in vivo; as to herbicidal effect rating, ECHORC: meaning of each grade not given here
[2] = tested on: Cyperus iria; experiment: Preemergence weed control under flooded paddy conditions, CYPIR (Rice Flatsedge); format: in vivo; as to herbicidal effect rating, CYPIR: meaning of each grade not given here
[3] = tested on: Monochoria vaginalis, Presl.; experiment: Preemergence weed control under flooded paddy conditions, MOOVA (Monochoria); format: in vivo; as to herbicidal effect rating, MOOVA: meaning of each grade not given here
[4] = tested on: Echinochloa oryzoides (Ard.) Fritsch.; experiment: Postemergence weed control under flooded paddy conditions, ECHORC (Watergrass (Calif.)); format: in vivo; settings: rated three to four weeks after treatment
[5] = tested on: Cyperus iria; experiment: Postemergence weed control under flooded paddy conditions, CYPIR (Rice Flatsedge); format: in vivo; settings: rated three to four weeks after treatment
[6] = tested on: Cyperus serotinus, Rottb.; experiment: Postemergence weed control under flooded paddy conditions, CYPSE (Flatsedge); format: in vivo; settings: rated three to four weeks after treatment
[7] = tested on: Monochoria vaginalis, Presl.; experiment: Postemergence weed control under flooded paddy conditions, MOOVA (Monochoria); format: in vivo; settings: rated three to four weeks after treatment
[8] = tested on: Sagittaria pygmaea, L.; experiment: Postemergence weed control under flooded paddy conditions, SAGPY (Arrowhead (Pygmaea)); format: in vivo; settings: rated three to four weeks after treatment
[9] = tested on: Oryza sativa, (L.) Tebonnet; experiment: Rice tolerance to post-transplant applications under flooded paddy conditions (Example 188), ORYSAT (Rice, Tebonnet); settings: rated three to four weeks after treatment
[10] = tested on: Cyperus serotinus, Rottb.; experiment: Preemergence weed control under flooded paddy conditions, CYPSE (Flatsedge); format: in vivo; settings: preemergence
[11] = tested on: Sagittaria pygmaea, L.; experiment: Preemergence weed control under flooded paddy conditions, SAGPY (Arrowhead (Pygmaea)); format: in vivo; settings: preemergence, flooded paddy
[12] = tested on: Oryza sativa, (L.) Tebonnet; experiment: Rice tolerance to post-transplant applications under flooded paddy conditions (Example 187), ORYSAT (Rice, Tebonnet); as to herbicidal effect rating ORYSAT: meaning of each grade not given here
[13] = 0.0320 kg/ha, preemergence, flooded paddy, rated three to four weeks after treatment
[14] = 0.0620 kg/ha, preemergence, flooded paddy, rated three to four weeks after treatment
[15] = 0.1250 kg/ha, preemergence, flooded paddy, rated three to four weeks after treatment
[16] = 0.2500 kg/ha, preemergence, flooded paddy, rated three to four weeks after treatment
[17] = 0.0620 kg/ha, rated three to four weeks after treatment
[18] = 0.1250 kg/ha, rated three to four weeks after treatment
[19] = 0.0320 kg/ha, rated three to four weeks after treatment
[20] = 0.2500 kg/ha, rated three to four weeks after treatment
[21] = Rate 0.0320 kg/ha, preemergence, flooded paddy, rated three to four weeks after treatment
[22] = Rate 0.0620 kg/ha, preemergence, flooded paddy, rated three to four weeks after treatment
[23] = Rate 0.1250 kg/ha, preemergence, flooded paddy, rated three to four weeks after treatment
[24] = Rate 0.2500 kg/ha, preemergence, flooded paddy, rated three to four weeks after treatment
[25] = Rate 0.0320 kg/ha, rated three to four weeks after treatment
[26] = Rate 0.0620 kg/ha, rated three to four weeks after treatment
[27] = Rate 0.1250 kg/ha, rated three to four weeks after treatment
[28] = Rate 0.2500 kg/ha, rated three to four weeks after treatment
[29] = Rate 0.0620 kg/ha, preemergence, flooded paddy, rated 3-4 weeks after treatment
[30] = Rate 0.1250 kg/ha, preemergence, flooded paddy, rated 3-4 weeks after treatment
[31] = Rate 0.2500 kg/ha, preemergence, flooded paddy, rated 3-4 weeks after treatment
[32] = Rate 0.5000 kg/ha, preemergence, flooded paddy, rated 3-4 weeks after treatment
[33] = Rate 0.0620 kg/ha, rated 3-4 weeks after treatment
[34] = Rate 0.1250 kg/ha, rated 3-4 weeks after treatment
[35] = Rate 0.2500 kg/ha, rated 3-4 weeks after treatment
[36] = Rate 0.5000 kg/ha, rated 3-4 weeks after treatment

COC(=O)C(C)Oc1ccc(C)cc1-c1nsc2ccc(-n3c(=O)cc(C(F)(F)F)n(C)c3=O)cc12 (stereo not shown) [Example 3, Methyl 2-{{2-{5-[3,6-dihydro-3-methyl-4-(trifluoromethyl)-2,6-dioxo-1(2H)-pyrimidinyl]-1,2-benzisothiazol-3-yl}-p-tolyl}oxy}propionate]
herbicidal effect rating, ECHORC ([1]; in vivo): 9.0
herbicidal effect rating, CYPIR ([2]; in vivo): 9.0
herbicidal effect rating, MOOVA ([3]; in vivo): 9.0
herbicidal effect rating, ECHORC ([4]; Rate 0.0313 kg/ha): 0.0
herbicidal effect rating, ECHORC ([4]; Rate 0.0625 kg/ha): 0.0
herbicidal effect rating, ECHORC ([4]; Rate 0.1250 kg/ha): 0.0
herbicidal effect rating, ECHORC ([4]; Rate 0.2500 kg/ha): 2.0
herbicidal effect rating, ECHORC ([4]; Rate 0.5000 kg/ha): 4.0
herbicidal effect rating, CYPIR ([5]; Rate 0.0313 kg/ha): 9.0
herbicidal effect rating, CYPIR ([5]; Rate 0.0625 kg/ha): 9.0
herbicidal effect rating, CYPIR ([5]; Rate 0.1250 kg/ha): 9.0
herbicidal effect rating, CYPIR ([5]; Rate 0.2500 kg/ha): 9.0
herbicidal effect rating, CYPIR ([5]; Rate 0.5000 kg/ha): 9.0
herbicidal effect rating, CYPSE ([6]; Rate 0.0313 kg/ha): 0.0
herbicidal effect rating, CYPSE ([6]; Rate 0.0625 kg/ha): 0.0
herbicidal effect rating, CYPSE ([6]; Rate 0.1250 kg/ha): 0.0
herbicidal effect rating, CYPSE ([6]; Rate 0.2500 kg/ha): 0.0
herbicidal effect rating, CYPSE ([6]; Rate 0.5000 kg/ha): 0.0
herbicidal effect rating, MOOVA ([7]; Rate 0.0313 kg/ha): 9.0
herbicidal effect rating, MOOVA ([7]; Rate 0.0625 kg/ha): 9.0
herbicidal effect rating, MOOVA ([7]; Rate 0.1250 kg/ha): 9.0
herbicidal effect rating, MOOVA ([7]; Rate 0.2500 kg/ha): 9.0
herbicidal effect rating, MOOVA ([7]; Rate 0.5000 kg/ha): 9.0
herbicidal effect rating, SAGPY ([8]; Rate 0.0313 kg/ha): 0.0
herbicidal effect rating, SAGPY ([8]; Rate 0.0625 kg/ha): 0.0
herbicidal effect rating, SAGPY ([8]; Rate 0.1250 kg/ha): 0.0
herbicidal effect rating, SAGPY ([8]; Rate 0.2500 kg/ha): 0.0
herbicidal effect rating, SAGPY ([8]; Rate 0.5000 kg/ha): 0.0
herbicidal effect rating, ORYSAT (rice tolerance) ([9]; Rate 0.0313 kg/ha): 2.0
herbicidal effect rating, ORYSAT (rice tolerance) ([9]; Rate 0.0625 kg/ha): 2.0
herbicidal effect rating, ORYSAT (rice tolerance) ([9]; Rate 0.1250 kg/ha): 3.0
herbicidal effect rating, ORYSAT (rice tolerance) ([9]; Rate 0.2500 kg/ha): 3.0
herbicidal effect rating, ORYSAT (rice tolerance) ([9]; Rate 0.5000 kg/ha): 3.0

Cn1c(C(F)(F)F)cc(=O)n(-c2ccc3snc(C(C)(C)C(=O)NS(C)(=O)=O)c3c2)c1=O [Example 488, 1,2-Benzisothiazole-3-acetamide, 5-[3,6-dihydro-3-methyl-2,6-dioxo-4-(trifluoromethyl)-1(2H)-pyrimidinyl]-alpha,alpha-dimethyl-N-(methylsulfonyl)-]
ECHORC herbicidal rating [1, 13]: 0.0
ECHORC herbicidal rating [1, 14]: 0.0
ECHORC herbicidal rating [1, 15]: 0.0
ECHORC herbicidal rating [1, 16]: 0.0
CYPIR herbicidal rating [2, 13]: 3.0
CYPIR herbicidal rating [2, 14]: 3.0
CYPIR herbicidal rating [2, 15]: 4.0
CYPIR herbicidal rating [2, 16]: 5.0
CYPSE herbicidal rating [10, 17]: 0.0
CYPSE herbicidal rating [10, 18]: 0.0
MOOVA herbicidal rating [3, 13]: 7.0
MOOVA herbicidal rating [3, 14]: 9.0
MOOVA herbicidal rating [3, 15]: 9.0
MOOVA herbicidal rating [3, 16]: 9.0
SAGPY herbicidal rating [11, 19]: 0.0
SAGPY herbicidal rating [11, 17]: 0.0
SAGPY herbicidal rating [11, 18]: 0.0
SAGPY herbicidal rating [11, 20]: 0.0
ORYSAT herbicidal rating (rice tolerance) [12, 19]: 3.0
ORYSAT herbicidal rating (rice tolerance) [12, 17]: 3.0
ORYSAT herbicidal rating (rice tolerance) [12, 18]: 4.0
ORYSAT herbicidal rating (rice tolerance) [12, 20]: 4.0

CCSCCOC(=O)c1nsc2ccc(-n3c(=O)cc(C(F)(F)F)n(C)c3=O)cc12 [Example 385, 1,2-Benzisothiazole-3-carboxylic acid, 5-[3,6-dihydro-3-methyl-2,6-dioxo-4-(trifluoromethyl)-1(2H)-pyrimidinyl]-, 2-(ethylthio)ethyl ester]
herbicidal effect rating, ECHORC [1, 21]: 0.0
herbicidal effect rating, ECHORC [1, 22]: 3.0
herbicidal effect rating, ECHORC [1, 23]: 3.0
herbicidal effect rating, ECHORC [1, 24]: 6.0
herbicidal effect rating, CYPIR [2, 21]: 4.0
herbicidal effect rating, CYPIR [2, 22]: 6.0
herbicidal effect rating, CYPIR [2, 23]: 6.0
herbicidal effect rating, CYPIR [2, 24]: 9.0
herbicidal effect rating, CYPSE [10, 25]: 6.0
herbicidal effect rating, CYPSE [10, 26]: 6.0
herbicidal effect rating, CYPSE [10, 27]: 7.0
herbicidal effect rating, CYPSE [10, 28]: 7.0
herbicidal effect rating, MOOVA [3, 21]: 9.0
herbicidal effect rating, MOOVA [3, 22]: 9.0
herbicidal effect rating, MOOVA [3, 23]: 9.0
herbicidal effect rating, MOOVA [3, 24]: 9.0
herbicidal effect rating, SAGPY [11, 25]: 0.0
herbicidal effect rating, SAGPY [11, 26]: 0.0
herbicidal effect rating, SAGPY [11, 27]: 9.0
herbicidal effect rating, SAGPY [11, 28]: 9.0
herbicidal effect rating ORYSAT [12, 25]: 3.0
herbicidal effect rating ORYSAT [12, 26]: 5.0
herbicidal effect rating ORYSAT [12, 27]: 7.0
herbicidal effect rating ORYSAT [12, 28]: 7.0

CCOC(=O)C(F)(F)Oc1ccc(C)cc1-c1nsc2ccc(-n3c(=O)cc(C(F)(F)F)n(C)c3=O)cc12 [Example 559, Acetic acid, {{2-{5-[3,6-dihydro-3-methyl-2,6-dioxo-4-(trifluoromethyl)-1(2H)-pyrimidinyl]-1,2-benzisothiazol-3-yl}-p-tolyl}oxy}difluoro-, ethyl ester]
herbicidal effect rating, ECHORC [1, 29]: 3.0
herbicidal effect rating, ECHORC [1, 30]: 3.0
herbicidal effect rating, ECHORC [1, 31]: 6.0
herbicidal effect rating, ECHORC [1, 32]: 9.0
herbicidal effect rating, CYPIR [2, 29]: 0.0
herbicidal effect rating, CYPIR [2, 30]: 0.0
herbicidal effect rating, CYPIR [2, 31]: 0.0
herbicidal effect rating, CYPIR [2, 32]: 4.0
herbicidal effect rating, CYPSE [10, 33]: 0.0
herbicidal effect rating, CYPSE [10, 34]: 0.0
herbicidal effect rating, CYPSE [10, 35]: 9.0
herbicidal effect rating, CYPSE [10, 36]: 9.0
herbicidal effect rating, MOOVA [3, 29]: 9.0
herbicidal effect rating, MOOVA [3, 30]: 9.0
herbicidal effect rating, MOOVA [3, 31]: 9.0
herbicidal effect rating, MOOVA [3, 32]: 9.0
herbicidal effect rating, SAGPY [11, 33]: 0.0
herbicidal effect rating, SAGPY [11, 34]: 0.0
herbicidal effect rating, SAGPY [11, 35]: 0.0
herbicidal effect rating, SAGPY [11, 36]: 0.0
herbicidal effect rating ORYSAT [12, 33]: 1.0
herbicidal effect rating ORYSAT [12, 34]: 1.0
herbicidal effect rating ORYSAT [12, 35]: 2.0
herbicidal effect rating ORYSAT [12, 36]: 2.0
